Like-named read-outs stand apart in the source and are kept apart here.
Assays:
[1] = test system: H358; experiment: 3D H358 Cell Proliferation Assay; assay type: cell-based; conditions: Homo sapiens, NCI-H358; H358, 3D, 96 hr; read-out: relative IC50
Description: Human lung cancer cells, H358, (ATCC CRL-5807) are used to evaluate compound inhibition in a 3D proliferation assay. Signal reflecting cell proliferation is detected with the CellTiterGlo® 3D reagent (Promega G9683). The cells are grown in RPMI 1640 (GIBCO®) supplemented with 10% heat inactivated FBS and 0.1 mg/ml penicillin/streptomycin. H358 cells are cultured in the growth phase and five thousand cells per well are plated in a black well clear round bottom 96-well ultra-low attachment surface plate (Corning® Cat 4520) with 80 μl/well of culture media. Cells are incubated overnight at 37° C. in a humidity chamber. 20 μl/well of serially diluted test compound is added to the plate which is then incubated for 96 hr. Plates are brought to RT and an equal volume of RT CellTiterGlo® 3D reagent is added. Plates are shaken at 750 RPM for 10 min at RT After a 1 hr incubation at RT to stabilize the signal, the luminescent signal is measured on the EnVision™ plate reader. The signal is converted to percent inhibition using the following equation: % Inhibition=100−[(Test Compound Signal−Median Minimum Signal)/(Median Maximum Signal−Median Minimum Signal)×100]. The Max Signal is a control well without inhibitor.

[2] = test system: LXFA-983L; experiment: CellTiterGlo Cell Proliferation Assay, LXFA-983L; assay type: cell-based; conditions: KRas G12C, Lung, 96 hr
Description: (§1) A panel of tumor cell lines harboring KRas G12C or other KRas mutations are collected (Table 6). All cell lines are from ATCC or other sources indicated.
(§2) Typically cells are cultured in RPMI1640 or Dulbecco's modified Eagle's medium (DMEM, GIBCO) supplemented with 10% FBS (GIBCO, Invitrogen). For 2D culture cells (4×10^3/well) maintained in growth medium described above, are plated onto 96 well tissue culture plates Corning® Cat. 3603) a day before the treatment. For 3D culture 8000 cells/well are seeded onto 96 well ultra-low attachment tissue culture plates (Corning, #3474). The cells are treated compound for 96 hr, and then are analyzed for viability using the CellTiterGlo® Luminescent Cell Viability Assay® (Promega #G7572 for 2D and Promega #G9683 for 3D cultures) according to manufacturer's instructions and an EnVision™ plate reader. Nonlinear regression and sigmoidal dose-response curves are used to calculate the half maximal inhibitory concentration (IC50) with GraphPad Prism 4® software.

[3] = test system: H1792; experiment: CellTiterGlo Cell Proliferation Assay, H1792; assay type: cell-based; conditions: Homo sapiens, NCI-H1792, KRas G12C, Lung, 96 hr
Description: as §1, §2

[4] = test system: H2030 xenograft; experiment: Anti-tumor growth activity, H2030 lung xenograft; assay type: in vivo; conditions: 28 Day, negative = regression
[5] = read-out: IC50 (μM) in 2 D cell proliferation
[6] = read-out: IC50 (μM) in 3 D spheroid cell proliferation

IC50 [1]: < 11.6 nM
IC50 [3, 5]: 3.93 µM
IC50 [3, 6]: 3.84 µM
Compound: C=CC(=O)N1CCN(c2ncnc3c(F)c(-c4ccc(F)c5sc(N)nc45)c(Cl)cc23)CC1 [Example 1, 1-{4-[7-(2-Amino-7-fluoro-1,3-benzothiazol-4-yl)-6-chloro-8-fluoroquinazolin-4-yl]piperazin-1-yl}prop-2-en-1-one]
IC50 [2, 5]: 1.34 µM
IC50 [2, 6]: 0.05 µM
Tumor Growth Inhibition (%) or Regression (−%) ([4]; 15 mg/kg BID): 82%
Tumor Growth Inhibition (%) or Regression (−%) ([4]; 30 mg/kg BID): 91.9%
Tumor Growth Inhibition (%) or Regression (−%) ([4]; 30 mg/kg QD): 75.1%

— patent US10968214B2, “KRas G12C inhibitors” (Eli Lilly and Company, priority 2018, dated 2021)
